Key:
Format in all cases: in vivo
[1] = system: rice; assay: Herbicidal efficacy in relation to application timing in Indonesia (Table 5); conditions: 5 WAT; 8 GAI/HA; evaluation 3
Source text: (§1) Methyl 2-[[[[(4-methoxy-6-methyl-1,3,5-triazin-2-yl)amino]carbonyl]amino]sulfonyl]benzoate (Compound 1) and mixtures thereof with other compounds were applied as a spray (using a hand sprayer) to rice (either transplanted or direct seeded) in several rice growing areas in Southeast Asia and in the U.S. Tables 1-28 contain the results of these tests and clearly exemplify the utility of this invention. The details of each application are included in the appropriate table. [drawing 2]

[2] = system: Aeschynomene indica; assay: Late-post application in Beaumont, Texas, with 0.25% AG-98 (Table 9); conditions: 70 days after seeding
Source text: as §1

[3] = system: rice; assay: as above; conditions: 70 days after seeding
Source text: as §1

[4] = system: Echinochloa colonum; assay: as above; conditions: 70 days after seeding
Source text: as §1

[5] = system: Annual sedge (?); assay: as above; conditions: 70 days after seeding
Source text: as §1

[6] = system: Eclipta alba; assay: as above; conditions: 70 days after seeding
Source text: as §1

[7] = system: Sesbania exaltata; assay: as above; conditions: 70 days after seeding
Source text: as §1

[8] = system: Caperonia castaniifolia; assay: as above; conditions: 70 days after seeding
Source text: as §1

[9] = system: Commelina communis; assay: as above; conditions: 70 days after seeding
Source text: as §1

[10] = system: FIMBRISTYLIS MILIACEA; assay: Herbicidal efficacy alone and with 2,4-D in Thailand (Table 3); conditions: 6 weeks after application
Source text: as §1

[11] = system: transplanted rice (var. Nihonbare); assay: Crop tolerance of transplanted rice, combinations with Thiobencarb, Dimepiperate, Esprocarb and Dymron (Table 15); conditions: 15 days after application
Source text: as §1

[12] = system: rice; assay: Greenhouse test of Compound 1 and Compound 2, crop tolerance (Table 26); conditions: treated 12 days after transplanting, rated 24 days after treatment; for % CONTROL OR INJURY LEMONT: indica rice variety Lemont; for % CONTROL OR INJURY M101: japonica rice variety M101
Source text: as §1

[13] = system: MC; assay: Herbicidal efficacy with 2,4-D in Thailand (Table 17); conditions: 4 GAI/HA; 14 days after treatment
Source text: as §1

[14] = system: rice; assay: as above; conditions: 4 GAI/HA; 14 days after treatment
Source text: as §1

[15] = system: Sphenoclea zeylanica; assay: as above; conditions: 4 GAI/HA; 14 days after treatment
Source text: as §1

[16] = system: Ludwigia linifolia; assay: as above; conditions: 4 GAI/HA; 14 days after treatment
Source text: as §1

[17] = system: Cyperus difformis; assay: as above; conditions: 4 GAI/HA; 14 days after treatment
Source text: as §1

[18] = system: rice; assay: Effects on rice growth in Thailand, phytotoxicity (Table 2); conditions: scale 0-10
Source text: as §1

## COC(=O)c1ccccc1S(=O)(=O)NC(=O)Nc1nc(C)nc(OC)n1 [Compound 1, Methyl 2-[[[[(4-methoxy-6-methyl-1,3,5-triazin-2-yl)amino]carbonyl]amino]sulfonyl]benzoate]
[1]
  % CONTROL RICE: 0%
[2]; 3 G/HA
  % INJURY OR CONTROL AI: 68%
[2]; 6 G/HA
  % INJURY OR CONTROL AI: 62%
[2]; 12 G/HA
  % INJURY OR CONTROL AI: 46%
[3]; 3 G/HA
  % INJURY OR CONTROL RICE: 3%
[3]; 6 G/HA
  % INJURY OR CONTROL RICE: 5%
[3]; 12 G/HA
  % INJURY OR CONTROL RICE: 6%
[4]; 3 G/HA
  % INJURY OR CONTROL EC: 26%
[4]; 6 G/HA
  % INJURY OR CONTROL EC: 30%
[4]; 12 G/HA
  % INJURY OR CONTROL EC: 24%
[5]; 3 G/HA
  % INJURY OR CONTROL SEDGE: 43%
[5]; 6 G/HA
  % INJURY OR CONTROL SEDGE: 56%
[5]; 12 G/HA
  % INJURY OR CONTROL SEDGE: 56%
[6]; 3 G/HA
  % INJURY OR CONTROL EA: 13%
[6]; 6 G/HA
  % INJURY OR CONTROL EA: 23%
[6]; 12 G/HA
  % INJURY OR CONTROL EA: 15%
[7]; 3 G/HA
  % INJURY OR CONTROL SE: 68%
[7]; 6 G/HA
  % INJURY OR CONTROL SE: 62%
[7]; 12 G/HA
  % INJURY OR CONTROL SE: 46%
[8]; 3 G/HA
  % INJURY OR CONTROL CC: 11%
[8]; 6 G/HA
  % INJURY OR CONTROL CC: 19%
[8]; 12 G/HA
  % INJURY OR CONTROL CC: 18%
[9]; 3 G/HA
  % INJURY OR CONTROL COM: 13%
[9]; 6 G/HA
  % INJURY OR CONTROL COM: 24%
[9]; 12 G/HA
  % INJURY OR CONTROL COM: 23%
[10]; applied 7 DAS, 3 GAI/HA
  FIMBRISTYLIS MILIACEA CONTROL: 53%
[10]; applied 7 DAS, 6 GAI/HA
  FIMBRISTYLIS MILIACEA CONTROL: 73%
[10]; applied 14 DAS, 3 GAI/HA
  FIMBRISTYLIS MILIACEA CONTROL: 20%
[10]; applied 14 DAS, 6 GAI/HA
  FIMBRISTYLIS MILIACEA CONTROL: 40%
[10]; applied 21 DAS, 3 GAI/HA
  FIMBRISTYLIS MILIACEA CONTROL: 0%
[10]; applied 21 DAS, 6 GAI/HA
  FIMBRISTYLIS MILIACEA CONTROL: 0%
[10]; applied 28 DAS, 3 GAI/HA
  FIMBRISTYLIS MILIACEA CONTROL: 0%
[10]; applied 28 DAS, 6 GAI/HA
  FIMBRISTYLIS MILIACEA CONTROL: 0%
[11]; 4 GAI/HA
  CROP TOLERANCE (Nihonbare) DW, dry weight relative to untreated check: 107%
  CROP TOLERANCE (Nihonbare) PH, plant height relative to untreated check: 103%
  CROP TOLERANCE (Nihonbare) VA, visual crop injury: 0%
[11]; 8 GAI/HA
  CROP TOLERANCE (Nihonbare) DW, dry weight relative to untreated check: 83%
  CROP TOLERANCE (Nihonbare) PH, plant height relative to untreated check: 95%
  CROP TOLERANCE (Nihonbare) VA, visual crop injury: 3%
[12]; rate 1 g ai/ha
  % CONTROL OR INJURY LEMONT: 10%
  % CONTROL OR INJURY M101: 0%
[12]; rate 2 g ai/ha
  % CONTROL OR INJURY LEMONT: 20%
  % CONTROL OR INJURY M101: 10%
[12]; rate 4 g ai/ha
  % CONTROL OR INJURY LEMONT: 40%
  % CONTROL OR INJURY M101: 10%
[12]; rate 8 g ai/ha
  % CONTROL OR INJURY LEMONT: 50%
  % CONTROL OR INJURY M101: 35%
[13]
  % CONTROL OR INJURY MC: 100%
[14]
  % CONTROL OR INJURY RICE: 16.6%
[15]
  % CONTROL OR INJURY SZ: 100%
[16]
  % CONTROL OR INJURY LL: 87%
[17]
  % CONTROL OR INJURY CD: 100%
[18]; applied 7 DAS, 3 GAI/HA
  PHYTOTOXICITY: 1.67
[18]; applied 7 DAS, 6 GAI/HA
  PHYTOTOXICITY: 1.33
[18]; applied 14 DAS, 3 GAI/HA
  PHYTOTOXICITY: 1.0
[18]; applied 14 DAS, 6 GAI/HA
  PHYTOTOXICITY: 1.0
[18]; applied 21 DAS, 3 GAI/HA
  PHYTOTOXICITY: 0
[18]; applied 21 DAS, 6 GAI/HA
  PHYTOTOXICITY: 0
[18]; applied 28 DAS, 3 GAI/HA
  PHYTOTOXICITY: 0
[18]; applied 28 DAS, 6 GAI/HA
  PHYTOTOXICITY: 0

— patent EP0377642B1, “HERBICIDES FOR WEED CONTROL IN RICE” (E.I. DU PONT DE NEMOURS AND COMPANY, priority 1987, dated 1989)
